From patent publication US20260297105A1, “RAF-MEK PROTEIN COMPLEX MODULATORS AND METHODS OF USE THEREOF” (GANDEEVA THERAPEUTICS, INC., priority 2023, published 2026)

Legend:
[1] = target: T1, MEK1 (Homo sapiens, UniProt Q02750); assay: MEK1 kinase cascade assay (ADP-Glo), inhibition of MEK1 kinase activity; format: biochemical; details: 25 nM BRAF, 6.25 nM MEK1, 0.5 μM ERK, 1 mM ATP; 20 min preincubation, 1 hr at 25° C.; read-out: BRAF ADP Glo kinase assay V3 (IC50)
T1 construct: purchased SignalChem M02-14H
In short: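 Cascade format with ADP-Glo read-out: BRAF (25 nM) and compound, 1% DMSO, 20 mins at 25° C, then MEK1 6.25 nM, ERK1 0.5 μM, ATP 1 mM for 1 hr at 25° C in HEPES pH 7.5 buffer with MgCl2, CHAPS and DTT. Percent inhibition, scaled between DMSO and 1 μM Trametinib, was fit by 4-parameter logistic to give IC50 (2 replicate wells).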

[2] = test system: BRAF-MEK1; assay: BRAF-MEK TR-FRET assay, stabilization of MEK1 and BRAF interaction; format: binding; details: 4 nM BRAF, 10 nM MEK, 100 μM ATP; 1 hr at 25° C.; read-out: BRAF-MEK TR-FRET Assay (EC50, fold stabilization)
In short: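 Read-out is fold stabilization (treated FRET ratio/DMSO, Em 665/620 nm), fit 4-parameter for EC50 from 2 replicates. Compounds sat with 4 nM GST-BRAF and 10 nM in-house His-MEK1 1 h at 25° C (Tris pH 7.5, MgCl2, 100 μM ATP), then detection antibodies 1 h.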

[3] = test system: NCI-H292 cells; assay: Cell viability assay (CellTiter-Glo), NCI-H292; format: cell-based; details: Homo sapiens, 72 hrs, read-out: Cell Viability Assay: IC50 Determination NCI-H292
Procedure: (§1) Cell culture: HCTI 16, HT-29, and NCI-H292 cells were acquired from American Type Culture Collection (ATCC). HCT116 and HT-29 cells were maintained in ATCC-formulated McCoy's 5a Medium Modified supplemented with 10% fetal bovine serum, NCI-H292 cells were cultured in ATCC formulated RPMI-1640 supplemented with 10% fetal bovine serum. All cells were maintained at 37° C., 5% CO2.
Efficacy of exemplary compounds in inhibition of cell viability: HCT116 and HT-29 cells were plated at 4,000 cells per well and NCI-H292 cells were plated at 2,000 cells per well in their respective media in 384-well white, TC-treated plates (Corning). After 24 hours of incubation, the cells were treated with vehicle (DMSO) or test compounds (0.1% DMSO in final volume) for 72 hrs. The plate was equilibrated at room temperature for 10 mins followed by addition of a 1:1 volume of CellTiter-Glo® reagent (Promega). The contents were mixed for 2 mins on an orbital shaker to induce lysis. The plate was incubated at room temperature for 10 mins to stabilize luminescent signal before measuring luminescence on a Cytation5 microplate reader (Agilent). % inhibition as a function of compound concentration from 3 replicate wells was fit with a 4-parameter logistic curve using GraphPad Prism or CDD Vault to derive IC50 values.
(§2) In this table, for the BRAF ADP Glo kinase assay, “A” indicates IC50 of less than 5 nM; “B” indicates IC50 of between 5 nM to 50 nM; and “C” indicates IC50 of between 50 nM to 500 nM. “D” indicates IC50 of greater than 500 nM. For the BRAF-MEK TR-FRET assay, “A” indicates EC50 of less than 50 nM; “B” indicates EC50 of between 50 nM to 200 nM; and “C” indicates EC50 of between 200 nM to 1 μM. “D′” indicates EC50 of greater than 1 μM. For the AlphaLisa P-ERK assay, “A” indicates IC50 of less than 1 nM; “B” indicates IC50 of between 1 nM to 10 nM; and “C” indicates IC50 of between 10 nM to 100 nM. “D” indicates IC50 of greater than 100 nM. For the cell viability assay, “A” indicates IC50 of less than 1 nM; “B” indicates IC50 of between 1 nM to 10 nM; and “C” indicates IC50 of between 10 nM to 100 nM. “D” indicates IC50 of greater than 100 nM.

[4] = test system: p-ERK1/2 in HCT116 cells; assay: AlphaLISA p-ERK assay, cellular inhibition of ERK phosphorylation in HCT116 cells; format: cell-based; details: Homo sapiens, HCT-116, 2 hours treatment, PMA stimulation 30 mins
Procedure: as §1
Efficacy of exemplary compounds in cellular inhibition of ERK phosphorylation: Phosphorylation status of ERK1/2 (p-ERK) was used as a readout for inhibition of BRAF-MEK pathway. p-ERK was detected using an immunoassay for quantitative detection of phospho-ERK 1/2 (phosphorylated on Thr202/Tyr204 in ERK1, or Thr185/Tyr187 in ERK2), such as the AlphaLISA® SureFire® Ultra™ p-ERK1/2 (Thr202/Tyr204) kit (Perkin Elmer). HCT116 cells were plated at 10,000 cells per well in 384-well TC-treated plates (Coming). Cells were plated for 24 hours, the medium was then aspirated and cells were treated with vehicle (DMSO) or test compounds (0.1% DMSO in final volume) prepared in serum free, phenol red free medium for 2 hours. Following treatment, cells were stimulated with PMA (1.25 μM/well) for 30 mins after which the medium was aspirated, and the cells were lysed for 10 mins with 1× lysis buffer supplemented with Halt Protease and Phosphatase Inhibitor Cocktail (Thermo Fisher). The lysate was transferred to a 384 well Alpha-plate (PerkinElmer) and incubated for 1 hour with acceptor bead mix followed by 1 hour incubation with donor bead mix. After incubation, the plate was read on a Cytation5 microplate reader (Agilent). % inhibition as a function of compound concentration from 3 replicate wells was fit with a 4-parameter logistic curve using GraphPad Prism or CDD Vault to derive IC50 values.
as §2

T1 sequence (Q02750 whole entry): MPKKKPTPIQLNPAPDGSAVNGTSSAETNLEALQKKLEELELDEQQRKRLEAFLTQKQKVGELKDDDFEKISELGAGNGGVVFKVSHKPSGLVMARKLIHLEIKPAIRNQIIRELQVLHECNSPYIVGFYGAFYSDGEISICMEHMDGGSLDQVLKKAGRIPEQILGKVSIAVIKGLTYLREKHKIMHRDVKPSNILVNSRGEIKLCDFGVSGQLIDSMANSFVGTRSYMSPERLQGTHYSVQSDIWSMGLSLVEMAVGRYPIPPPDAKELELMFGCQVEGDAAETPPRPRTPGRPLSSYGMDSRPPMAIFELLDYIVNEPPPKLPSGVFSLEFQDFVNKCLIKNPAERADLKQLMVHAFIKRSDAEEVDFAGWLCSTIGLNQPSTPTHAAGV
T1 sequence (P15056 445-723 partner limits assumed): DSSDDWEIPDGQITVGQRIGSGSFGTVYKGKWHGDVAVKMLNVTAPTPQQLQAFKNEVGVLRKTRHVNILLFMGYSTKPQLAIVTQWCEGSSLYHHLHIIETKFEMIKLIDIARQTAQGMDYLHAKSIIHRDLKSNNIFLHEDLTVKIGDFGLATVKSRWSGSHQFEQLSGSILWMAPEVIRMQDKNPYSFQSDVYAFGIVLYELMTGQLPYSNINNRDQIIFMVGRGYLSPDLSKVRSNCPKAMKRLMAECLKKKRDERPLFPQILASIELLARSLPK

| SMILES | IC50 [1] | EC50 [2] | IC50 [3] | IC50 [4] |
| --- | --- | --- | --- | --- |
| CNS(=O)(=O)Nc1cccc(CN2Cc3ccc(Oc4cccnn4)cc3OC2=O)c1F [Compound 105, 3-({2-fluoro-3-[(methylsulfamoyl)amino]phenyl}methyl)-7-(pyridazin-3-yloxy)-3,4-dihydro-2H-1,3-benzoxazin-2-one] | < 5 nM | < 50 nM | 1 to 10 nM | 1 to 10 nM |
| O=C1Oc2cc(Oc3cccnn3)ccc2C2(COC2)N1Cc1cccc(NS(=O)(=O)C2CC2)c1F [Compound 59, N-(2-fluoro-3-{[2-oxo-7-(pyridazin-3-yloxy)-2,3-dihydrospiro[1,3-benzoxazine-4,3′-oxetan]-3-yl]methyl}phenyl)cyclopropanesulfonamide] | 5 to 50 nM | – | 1 to 10 nM | 1 to 10 nM |
| CN(C)S(=O)(=O)Nc1cccc(CN2C(=O)Oc3cc(Oc4cccnn4)ccc3C23COC3)c1F [Compound 64, 3-({3-[(dimethylsulfamoyl)amino]-2-fluorophenyl}methyl)-7-(pyridazin-3-yloxy)-2,3-dihydrospiro[1,3-benzoxazine-4,3′-oxetan]-2-one] | < 5 nM | 50 to 200 nM | 1 to 10 nM | 1 to 10 nM |
| CNS(=O)(=O)Nc1cccc(CN2C(=O)Oc3cc(Oc4cccnn4)ccc3C23COC3)c1F [Compound 81, 3-({2-fluoro-3-[(methylsulfamoyl)amino]phenyl}methyl)-7-(pyridazin-3-yloxy)-2,3-dihydrospiro[1,3-benzoxazine-4,3′-oxetan]-2-one] | < 5 nM | 50 to 200 nM | 1 to 10 nM | 1 to 10 nM |
| O=C1Oc2cc(Oc3ccccn3)ccc2CN1Cc1cccc(NS(=O)(=O)C2CC2)c1F [Compound 62, N-(2-fluoro-3-((2-oxo-7-(pyridin-2-yloxy)-2H-benzo[e][1,3]oxazin-3(4H)-yl)methyl)phenyl)cyclopropanesulfonamide] | 5 to 50 nM | – | > 100 nM | > 100 nM |
| O=C1Oc2cc(Oc3nccnn3)ccc2C2(CCC2)N1Cc1ccnc(NS(=O)(=O)C2CC2)c1F [Compound 161, (cyclopropylsulfonyl)[3-fluoro-4-({2-oxo-7-(1,2,4-triazin-3-yloxy)-2H,3H-spiro[1,3-benzoxazine-4,1′-cyclobutan]-3-yl}methyl)-2-pyridyl]amine] | – | 50 to 200 nM | 1 to 10 nM | 10 to 100 nM |
| CNS(=O)(=O)Nc1cccc(CN2C(=O)Oc3cc(Oc4cccnn4)c(F)cc3C23CCC3)c1F [Compound 19, 6-fluoro-3-{1[2-fluoro-3-(methylaminosulfonylamino)phenyl]methyl}-7-(3-pyridazinyloxy)-2H,3H-spiro[1,3-benzoxazine-4,1′-cyclobutan]-2-one] | 5 to 50 nM | < 50 nM | – | < 1 nM |
| CN(C)C(=O)Oc1ccc2c(c1)OC(=O)N(Cc1cccc(CN3CCOC3=O)c1F)C2 [Compound 21, 3-(2-fluoro-3-((2-oxooxazolidin-3-yl)methyl)benzyl)-2-oxo-3,4-dihydro-2H-benzo[e][1,3]oxazin-7-yl dimethylcarbamate] | 5 to 50 nM | 200 to 1000 nM | – | 1 to 10 nM |
| CNS(=O)(=O)Nc1nccc(CN2Cc3ccc(Oc4ncco4)cc3OC2=O)c1F [Compound 162, 3-{[3-fluoro-2-(methylaminosulfonylamino)-4-pyridyl]methyl}-7-(1,3-oxazol-2-yloxy)-3,4-dihydro-2H-1,3-benzoxazin-2-one] | – | 50 to 200 nM | 1 to 10 nM | 10 to 100 nM |
| CNS(=O)(=O)Nc1cccc(CN2Cc3ccc(C(F)(F)C(=O)N(C)C)cc3OC2=O)c1F [Compound 133] | 5 to 50 nM | – | 10 to 100 nM | 10 to 100 nM |
| CNS(=O)(=O)Nc1cccc(CN2Cc3cc(Cl)c(Oc4ncccn4)cc3OC2=O)c1F [Compound 148, 6-chloro-3-({2-fluoro-3-[(methylsulfamoyl)amino]phenyl}methyl)-7-(pyrimidin-2-yloxy)-3,4-dihydro-2H-1,3-benzoxazin-2-one] | 5 to 50 nM | – | 10 to 100 nM | 10 to 100 nM |
| CNS(=O)(=O)Nc1nccc(CN2C(=O)Oc3cc(Oc4cccnn4)ccc3[C@@H]2C)c1F (single isomer, unassigned) [Compound 22] | 5 to 50 nM | 50 to 200 nM | – | 10 to 100 nM |
| CNS(=O)(=O)Nc1nccc(CN2C(=O)Oc3cc(Oc4cccnn4)c(F)cc3C23COC3)c1F [Compound 18, 6-fluoro-3-{[3-fluoro-2-(methylaminosulfonylamino)-4-pyridyl]methyl}-7-(3-pyridazinyloxy)-2H,3H-spiro[1,3-benzoxazine-4,3′-oxetan]-2-one] | 5 to 50 nM | < 50 nM | – | 10 to 100 nM |
| CNS(=O)(=O)Nc1nccc(CN2C(=O)Oc3cc(Oc4ncco4)c(F)cc3C23CCC3)c1F [Compound 165, 6-fluoro-3-{[3-fluoro-2-(methylaminosulfonylamino)-4-pyridyl]methyl}-7-(1,3-oxazol-2-yloxy)-2H,3H-spiro[1,3-benzoxazine-4,1′-cyclobutan]-2-one] | < 5 nM | < 50 nM | 1 to 10 nM | – |
| CNS(=O)(=O)Nc1cccc(CN2Cc3cc(C)c(OC(=O)N(C)C)cc3OC2=O)c1F [Compound 112, 3-(2-fluoro-3-((N-methylsulfamoyl)amino)benzyl)-6-methyl-2-oxo-3,4-dihydro-2H-benzo[e][1,3]oxazin-7-yl dimethylcarbamate] | < 5 nM | 200 to 1000 nM | 1 to 10 nM | – |
| CNS(=O)(=O)Nc1cccc(CN2Cc3ccc(Oc4ccccn4)cc3OC2=O)c1F [Compound 65, 3-({2-fluoro-3-[(methylsulfamoyl)amino]phenyl}methyl)-7-(pyridin-2-yloxy)-3,4-dihydro-2H-1,3-benzoxazin-2-one] | < 5 nM | – | 10 to 100 nM | 10 to 100 nM |
| CN(C)C(=O)Oc1ccc2c(c1)OC(=O)N(Cc1cccc(NS(=O)(=O)C3CC3)c1F)C2 [Compound 125, 3-(3-(cyclopropanesulfonamido)-2-fluorobenzyl)-2-oxo-3,4-dihydro-2H-benzo[e][1,3]oxazin-7-yl dimethylcarbamate] | 5 to 50 nM | 200 to 1000 nM | 10 to 100 nM | – |
| CNS(=O)(=O)Nc1nccc(CN2C(=O)Oc3cc(Oc4cccnn4)ccc3C23CCC3)c1F [Compound 20, 3-{[3-fluoro-2-(methylaminosulfonylamino)-4-pyridyl]methyl}-7-(3-pyridazinyloxy)-2H,3H-spiro[1,3-benzoxazine-4,1′-cyclobutan]-2-one] | < 5 nM | < 50 nM | – | 1 to 10 nM |
